86 compounds from a melting point compilation (Tetko et al.; mined from patent text by program, amines drawn as free bases though some values may be those of a salt) can be followed below.

As a reminder, the melting point is the temperature, or range, at which the solid turns liquid.

SMILES strings stand for the structures.

In the case of `CC1(C)C(=O)Nc2cc(C=O)ccc2N(CC2CC2)C1=O`, the melting point was in the range of 124 to 125 °C. Compound `CCCn1cc2c(C3(F)C(=O)Nc4ccc(Br)cc43)ncnc2n1` (stereo unspecified) came in with a melting point of 184 to 186 °C. Then `Nc1nc(N)c2ncn(C3OC(COCc4ccccc4)C(OCc4ccccc4)C3OCc3ccccc3)c2n1` (stereo unspecified), with 158 to 159 °C; and `COC(=O)CCc1ccc(OCCc2nc(-c3ccccc3)oc2C)cc1`, with 50.2 to 51.7 °C. For `C=CCOc1ccc2c(C)cc(=O)oc2c1C(=O)C=Cc1cccnc1`, the melting point lay within 124 to 126 °C.

In the case of `COC(=O)c1ccccc1OCc1ccc(COc2ccccc2C(=O)OC)cc1`, the melting point lay within 115 to 120 °C.

Regarding `Cc1ccc2[nH]c(=O)c(-c3ccccc3)cc2c1`, the melting point lay in the range of 212 to 213 °C. Consider `Cc1cc(NS(=O)(=O)c2ccccc2)cc(C)c1SC[N+](=O)[O-]`, for which the melting point is 146 to 148 °C. Compound `CCOP(=O)(Cc1nnc2c(=O)[nH]c3ccc(Cl)cc3n12)OCC` registered a melting point of 223 to 227 °C. Regarding `CC(C)(C)c1cc2c(cc1O)C(C)(C)CC2(C)C`, the melting point worked out at 114 °C.

As for `Cn1c(C(F)(F)F)c(Cl)c(=O)n(-c2ccc(Cl)c3nc(C(C)(C)C)oc23)c1=O`, the melting point lay in the range of 83 to 86 °C. `CCOc1nc(OCC)c([N+](=O)[O-])c(N2CCS(=O)CC2)n1` had a melting point of 130 to 132 °C. Compound `COC(=O)C1(c2ccccc2)CCN(CCNC(=O)N2C(=O)COCC2c2ccc(F)c(F)c2)CC1` (stereo unspecified) yielded a melting point of 113 to 117 °C.

On to `NC(=O)C1CCC(=O)N1CC#CCN1CCCC1` (stereo unspecified), for which the melting point lay within 146 to 148 °C. Regarding `CN1CCCC1=NC(=O)Nc1c(Cl)cccc1Cl`, the melting point is 134 to 136 °C.

`CCCNC(=O)C(C)Cc1ccc2c(c1)c(Cc1ccc(C(=O)NS(=O)(=O)c3ccccc3C)cc1OC)cn2C` (stereo unspecified) yielded a melting point of 103 to 117 °C. In the case of `O=C1CCC(C(=O)O)C(=O)N1` (stereo unspecified), the melting point is 116 to 118 °C. With `O=S1OCCN1c1cc(-c2ccnc(Nc3cccc(Cl)c3)n2)ccn1` (stereo unspecified), the melting point fell in the range of 202 to 203 °C.

`COC(=O)c1ccc2nc(C)[nH]c2c1C(=O)OC` gave a melting point of 97 to 103 °C. For `CCOC(=O)Cc1c(C)n(Cc2ccccc2)c2ccc(O)cc12`, the melting point was 122 to 125 °C. Regarding `COC(=O)CCn1c(C(=O)OCc2ccccc2)cc2c(C)c(C)c(OC)cc21`, the melting point is 198 °C. On to `CCN(CC)CCNS(=O)(=O)c1ccc(Nc2cnnc3cc(Cl)ccc23)cc1`, for which the melting point lay within 175 to 176 °C. Then `COc1ccccc1CN1Cc2cc(OC)c(OCc3ccccc3)cc2C(OC)C1` (stereo unspecified), with 101 to 102 °C. Turning to `Cc1nc(Cl)cc(-c2ccc(F)cc2)n1`, the melting point lay in the range of 95 to 98 °C. Compound `COc1ncc(OC)c(NN)n1` gave a melting point of 115 to 117 °C. As for `CC(=O)NCc1ccc2ccn(C3CCN(CCc4ccc(Cl)cc4)CC3)c2c1`, the melting point fell in the range of 148 to 149 °C. The figure for `COc1ccc(F)c(C(N)=O)c1F` is 167 to 169 °C; for `C=CCOc1ncc(F)c(C2(C(=O)NN)C=CC=C(C)C2)n1` (stereo unspecified) it is 181 to 185 °C; for `CCOC(=O)c1cn2c3c(cc(Br)cc3c1=O)CC2(C)C` it is 227 to 228 °C. `CCOC(=O)CCCCn1c(C(=O)NCc2nnc(C)n2-c2sc(CC)cc2C(=O)c2ccccc2Cl)cc2ccccc21`: the melting point fell in the range of 85 to 87 °C.

As for `O=[N+]([O-])c1cnc2cc(Cl)ccc2c1Nc1ccc(F)cc1`, the melting point was 198 to 200 °C. `O=C(N[C@@H](Cc1ccc2ccccc2c1)C(=O)O)OCc1ccccc1` showed a melting point of 109 to 111 °C. `CNC(=O)N(O)C(C)c1ccc(OCc2ccccc2)cc1` (stereo unspecified) yielded a melting point of 125 to 128 °C. The compound `CCOC(=S)c1[nH]c(C)nc1C(C)(C)O` displayed a melting point of 128 to 129 °C. For `CCn1cc(C(=O)O)c(=O)c2ccc(-n3cccc3)cc21`, the melting point lay within 235 to 238 °C.

Consider `COc1ccccc1NC1c2cc(NC(=O)CC(C)(C)C)c(C)c(C)c2OC1(C)C` (stereo unspecified), for which the melting point lay in the range of 184 to 185 °C. In turn, `Cn1cc(Sc2ccccc2)c(=O)c(-c2ccccc2)c1` yielded a melting point of 164 to 165 °C. Regarding `CCOC(=O)c1nn(-c2ccccc2)c2c1CCCC2`, the melting point is 102 to 103 °C. `CCOC(=O)/C(C#N)=C/c1c(OC)cccc1OC` displayed a melting point of 99 to 101 °C. For the compound `CC(=O)N(CCCC(=O)O)c1ccccc1-c1ccccc1`, the melting point fell in the range of 124 to 125 °C.

In turn, `CCC(CC)OC(=O)c1ccc(C(=O)NS(=O)(=O)c2ccc(C(=O)NCCc3ccccc3)cc2)cn1` returned a melting point of 234 to 235 °C. As to `C/C(=C\c1ccc(C(=O)O)cc1)c1ccc2c(c1)OCCO2`, the melting point fell in the range of 172 to 173 °C.

Consider `Cc1nn(-c2ccc(Cl)cc2F)c(=O)[nH]1`, for which the melting point came out at 115 °C. For `Cc1cc(C(=O)Nc2ccc(C(N)=O)cc2)on1`, the melting point was greater than 300 °C. The figure for `CC(C)n1nc(-c2c(Nc3ccccn3)nc(N)nc2-c2ccccc2)ccc1=O` is 163 to 164 °C; for `CC1(C)CCc2ccc(Oc3ccc(N)cn3)cc2O1` it is 93 to 94 °C. Compound `CC(C)(C)c1ccc(-n2c(CC(=O)O)c(C(=O)O)c3cc(Oc4ccc(C(=O)O)cn4)c(Cl)cc32)cc1` showed a melting point of 223 to 235 °C.

`CCN(CC)CC(=O)Nc1ccc(C2=NN(C(C)=O)C(C)Cc3cc4c(cc32)OCO4)cc1` (stereo unspecified) returned a melting point of 175 to 176 °C. The figure for `Nc1nc(NCCc2ccc(O)cc2)nc2nc(-c3ccco3)nn12` is 225 to 227 °C; for `CN(C)CC(F)(F)[C@H](O)[C@@H](N)CC1CCCCC1` it is 47 to 49 °C; for `O=C(O)c1cn(C2CC2)c2nc(N3Cc4ccc(CO)cc4C3)c(F)cc2c1=O` it is greater than 300 °C. As to `COc1ccc(N2CCN(c3c(C)c(C)c4c(c3C)CC(C)(CN3CCC(O)CC3)O4)CC2)cc1` (stereo unspecified), the melting point was in the range of 139 to 143 °C. The compound `OCC1OC(n2cnc3c(Nc4ccccc4)ccnc32)C(O)C1O` (stereo unspecified) had a melting point of 189 °C. The figure for `CCn1cc(C(=O)C(=O)O)c2ccc(-c3ccc(OC(F)(F)F)cc3)cc21` is 204 to 205 °C; for `Cc1ccc2c(cc(C(=O)O)n2CCCC#N)c1C` it is 175 °C. As to `COc1cc(OCC(=O)O)c(C)cc1SCc1ccc(-c2ccccc2)cc1`, the melting point fell in the range of 60 to 62 °C.

Regarding `CCOC(=O)C1=C(C)NC(C)=C(C(=O)OCCOC)C1c1cccc(Cl)c1Cl` (stereo unspecified), the melting point is 139 °C. Then `O=C(CO)Nc1ccc(O)cc1`, with 141 to 143 °C; and `CN(C)c1nc(CSCCNC2=NS(=O)N=C2N)cs1` (stereo unspecified), with 116 to 122 °C. `Cc1c(C)c2c(c(C)c1NS(C)(=O)=O)CC(C)(C)O2`: the melting point was 159 to 160 °C. For the compound `COC(=O)C1c2ccccc2C(=O)N(CC(F)(F)F)C1c1cn[nH]c1` (stereo unspecified), the melting point is 161 to 162 °C. The compound `N#Cc1c(N2CCc3ccccc3CC2)nc(CCO)n(CCO)c1=O` gave a melting point of 164 °C.

In turn, `CC(C)(C)C(=O)C=C(C(=O)C(C)(C)C)n1cncn1` showed a melting point of 107 to 108 °C. As for `CS(=O)(=O)Nc1ccc(-c2cc(-c3c(-c4cccc(Cl)c4)nc4ccccn34)ccn2)cc1`, the melting point was 60 °C.

`COc1ccc(CC(C)=O)cc1S(=O)(=O)Cl`: the melting point fell in the range of 80 to 81 °C. `O=C(O)CC1(CC(=O)O)c2ccccc2C(=O)c2ccccc21` returned a melting point of 230 to 232 °C.

For the compound `Cc1cc(-c2c3ccccc3c(Br)c3sc(C)c(C)c23)cc(C)c1OS(=O)(=O)c1ccc(C(=O)OC(C)(C)C)c(O)c1`, the melting point lay within 168 to 172 °C. Then `Cc1cccnc1C(CO)COc1ccc(CC2SC(=N)NC2=O)cc1` (stereo unspecified), with 213 to 214 °C; and `O=C(N[C@@H]1CCc2ccccc21)C(F)(F)F`, with 152 to 153 °C; and `Cn1c(CON2C(=O)c3ccccc3C2=O)ncc(OCc2ccccc2)c1=O`, with 170 °C.

As for `Nc1nc2ccccc2c2c1ncn2CCCCNC(=O)c1cccc(Oc2ccccc2)c1`, the melting point lay within 105 to 107 °C. `CCCOc1ccc(S(=O)(=O)N2CC[C@@H](N(C)C)C2)cc1-c1nc2cc3ncn(Cc4ccccc4)c3cc2c(=O)[nH]1` returned a melting point of 190 °C. For the compound `CCCC(=O)c1cnc2c(COC(=O)c3ccc(OC)cc3)cccc2c1Nc1ccc(O)cc1C`, the melting point lay in the range of 171 to 175 °C. The compound `CC(C)CCNc1ccccc1NCC12CC3CC(CC(C3)C1)C2` came in with a melting point of 64 to 65 °C. In turn, `COCCn1c2cc(CCO)c(OC)cc2c2c3c(c(-c4ccccc4Cl)cc21)C(=O)NC3=O` yielded a melting point of 271 to 273 °C.

Compound `Cc1cc(-c2nn(-c3cccc(C(F)(F)F)c3)ccc2=O)n(-c2ccccc2)n1` returned a melting point of 167 to 168 °C. Compound `COC(=O)C(C)(C)c1ccc(OCCNC(=O)C2Cc3ccccc3N2S(=O)(=O)c2ccc(-c3cc(C(F)(F)F)ccc3Cl)cc2)cc1` (stereo unspecified) came in with a melting point of 66 to 72 °C. The figure for `COc1ccc(S(=O)(=O)Nc2cc(C)c(S(=O)(=O)C[N+](=O)[O-])c(C)c2)cc1` is 141 to 142 °C. Then `CNC(=O)ON=C(SCC(N)=O)C(C)(C)[N+](=O)[O-]`, with 125 to 127 °C; and `Cc1cn([C@H]2CC(N=[N+]=[N-])[C@@H](COC(=O)C(C)(C)CC(=O)N[C@@H](Cc3ccccc3)[C@H](O)C(=O)N3CSC[C@H]3C(=O)NC(C)(C)C)O2)c(=O)[nH]c1=O` (stereo partly specified), with 83 to 84 °C.

As for `Cc1nnc2n1-c1sc(CCCN3CCOCC3)cc1C(c1ccccc1Cl)NC2` (stereo unspecified), the melting point was 135 to 138 °C. Turning to `CC(C)(C)c1cc(-c2nc(S)sc2-c2ccccc2)cc(C(C)(C)C)c1O`, the melting point lay in the range of 168 to 171 °C. Compound `CC(Oc1ccc(Oc2ccc(C(F)(F)F)cn2)cc1)C(=O)N1CCCO1` (stereo unspecified) came in with a melting point of 83 to 85 °C. On to `FC(F)(F)c1cc(-c2ccc(Cl)c(Cl)c2)nc2ccnn12`, for which the melting point fell in the range of 130 to 131 °C.

`c1cc(-n2ccnc2)cc(-n2cnc3cc(-c4ccoc4)cnc32)c1`: the melting point was 202 to 204 °C. `COCCc1ccc(-c2ccc3c(c2)C=C(C(=O)Nc2ccc(CN(C)C4CCOCC4)cc2)CCS3(=O)=O)cc1` came in with a melting point of 216 to 219 °C.
